The values below come from patent publication US12662491B2 (Redona Therapeutics, Inc., priority 2020, dated 2026).

The structures appear in SMILES notation. A value given as a limit tells only on which side of the number the result lay.

The assay concerns the target T1, Zcchc11 enzyme (Homo sapiens, UniProt Q5TAX3).
T1 construct: made in house; host or cells: HEK293 cells (Zcchc11); E. coli Rosetta II (LIN28A)
T1 sequence (Q5TAX3 212-1420): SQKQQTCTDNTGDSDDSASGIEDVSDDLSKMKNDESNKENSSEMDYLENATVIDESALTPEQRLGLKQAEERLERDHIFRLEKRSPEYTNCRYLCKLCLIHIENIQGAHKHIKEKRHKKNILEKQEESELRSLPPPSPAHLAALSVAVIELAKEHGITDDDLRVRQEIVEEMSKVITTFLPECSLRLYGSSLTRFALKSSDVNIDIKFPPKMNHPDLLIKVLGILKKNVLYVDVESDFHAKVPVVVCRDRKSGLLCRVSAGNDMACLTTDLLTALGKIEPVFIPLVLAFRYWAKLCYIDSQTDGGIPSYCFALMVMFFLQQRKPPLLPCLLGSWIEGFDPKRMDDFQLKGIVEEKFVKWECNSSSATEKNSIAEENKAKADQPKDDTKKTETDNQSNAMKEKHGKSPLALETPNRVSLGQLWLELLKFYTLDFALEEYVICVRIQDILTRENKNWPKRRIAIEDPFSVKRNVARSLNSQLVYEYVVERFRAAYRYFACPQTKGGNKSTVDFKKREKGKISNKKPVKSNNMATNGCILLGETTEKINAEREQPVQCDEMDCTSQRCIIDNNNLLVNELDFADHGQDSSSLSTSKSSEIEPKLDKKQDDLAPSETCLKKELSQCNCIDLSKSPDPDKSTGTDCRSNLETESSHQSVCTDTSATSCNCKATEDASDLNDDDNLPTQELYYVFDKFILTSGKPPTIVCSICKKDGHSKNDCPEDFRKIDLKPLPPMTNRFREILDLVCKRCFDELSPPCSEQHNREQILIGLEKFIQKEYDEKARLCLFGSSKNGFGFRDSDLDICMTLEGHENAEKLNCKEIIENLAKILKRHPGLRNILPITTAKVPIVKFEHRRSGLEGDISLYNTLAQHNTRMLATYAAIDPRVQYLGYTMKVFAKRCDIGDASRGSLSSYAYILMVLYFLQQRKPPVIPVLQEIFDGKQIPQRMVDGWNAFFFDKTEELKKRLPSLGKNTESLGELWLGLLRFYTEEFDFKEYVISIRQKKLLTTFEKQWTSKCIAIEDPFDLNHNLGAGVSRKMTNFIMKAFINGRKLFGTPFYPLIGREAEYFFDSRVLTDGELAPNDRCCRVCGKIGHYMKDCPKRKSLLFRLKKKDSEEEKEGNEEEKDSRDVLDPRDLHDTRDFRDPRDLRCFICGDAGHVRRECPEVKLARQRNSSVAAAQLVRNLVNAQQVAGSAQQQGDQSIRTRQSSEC
Put plainly: TUTase assay (Zcchc11 assay, Lin28a-dependent polyuridylation of pre-let-7). It is filed as biochemical. As to conditions: Lin28a-dependent Zcchc11 (Z11) TUTase activity; read-out: Potency Lin28a-dep Z11 IC50. Put shortly:
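LIN28A (10 nM) in pH 7.3 HEPES/KCl/MgCl2/DTT buffer was mixed with serially diluted compound, then 0.2 nM truncated human Zcchc11 and 2 nM labeled pre-let-7 were added for 30 min at room temperature. UTP (5 uM) and quench probe (4 nM) then started the reaction. Linear early rates gave IC50 values.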
In general, IC50 refers to the concentration at which inhibition is half-maximal. As for `CN(C)C1CN(c2ccc(-n3cc(C(=O)O)c(=O)c4cc(Cl)c(N5CC6(CCC6)CC5COc5ncccc5Cl)cc43)cn2)C1` (centres unmarked) [Compound 226, 6-Chloro-7-(7-(((3-chloropyridin-2-yl)oxy)methyl)-6-azaspiro [3.4]octan-6-yl)-1-(6-(3-(dimethyl-amino)azetidin-1-yl)pyridin-3-yl)-4-oxo-1,4-dihydro-quinoline-3-carboxylic acid compound with formic acid (1:1)], the IC50 was not above 1000 nM. The same measure for `COc1ccc(Cl)c(OCC2N(c3cc4c(cc3Cl)c(=O)c(C(=O)O)cn4-c3cnnc(N)c3)CCC2(C)C)n1` (centres unmarked) [Compound 228, 1-(6-Amino-pyridazin-4-yl)-6-chloro-7-(2-(((3-chloro-6-methoxy-pyridin-2-yl)oxy)methyl)-3,3-dimethyl-pyrrolidin-1-yl)-4-oxo-1,4-dihydro-quinoline-3-carboxylic acid]: not above 1000 nM; for `COc1ccc(Cl)c(OCC2N(c3cc4c(cc3Cl)c(=O)c(C(=O)O)cn4-c3cc(N)cnn3)CCC2(C)C)n1` (centres unmarked) [Compound 229, 1-(5-Amino-pyridazin-3-yl)-6-chloro-7-(2-(((3-chloro-6-methoxy-pyridin-2-yl)oxy)methyl)-3,3-dimethyl-pyrrolidin-1-yl)-4-oxo-1,4-dihydro-quinoline-3-carboxylic acid]: not above 1000 nM.

For the compound `CO/N=C1/CCN(c2cc3c(cc2Cl)c(=O)c(C(=O)O)cn3-c2ccc(N3CC(N(C)C)C3)nc2)C1COc1nc(OC)ccc1Cl` (centres unmarked) [Compound 232, (Z)-6-chloro-7-(2-(((3-chloro-6-methoxy-pyridin-2-yl)oxy)methyl)-3-(methoxyimino)pyrrolidin-1-yl)-1-(6-(3-(dimethyl-amino)azetidin-1-yl)pyridin-3-yl)-4-oxo-1,4-dihydro-quinoline-3-carboxylic acid], the IC50 was not above 1000 nM. Next, `CO/N=C1\CCN(c2cc3c(cc2Cl)c(=O)c(C(=O)O)cn3-c2ccc(N3CC(N(C)C)C3)nc2)C1COc1nc(OC)ccc1Cl` (centres unmarked) [Compound 233, (E)-6-chloro-7-(2-(((3-chloro-6-methoxy-pyridin-2-yl)oxy)methyl)-3-(methoxyimino)pyrrolidin-1-yl)-1-(6-(3-(dimethyl-amino)azetidin-1-yl)pyridin-3-yl)-4-oxo-1,4-dihydro-quinoline-3-carboxylic acid]: not above 1000 nM; `O=C(O)c1cn(-c2ccc3c(c2)CNC3)c2cc(N3CCC[C@@H]3COc3ncccc3Cl)c(Cl)cc2c1=O` [Compound 236, 6-chloro-7-[(2R)-2-[[(3-chloropyridin-2-yl)oxy]methyl]pyrrolidin-1-yl]-1-(2,3-dihydro-1H-isoindol-5-yl)-4-oxoquinoline-3-carboxylic acid]: not above 1000 nM; `CC(=O)N1Cc2ccc(-n3cc(C(=O)O)c(=O)c4cc(Cl)c(N5CCC[C@@H]5COc5ncccc5Cl)cc43)cc2C1` [Compound 237, 1-(2-acetyl-1,3-dihydro-isoindol-5-yl)-6-chloro-7-[(2R)-2-[[(3-chloropyridin-2-yl)oxy]methyl]pyrrolidin-1-yl]-4-oxoquinoline-3-carboxylic acid]: not above 1000 nM. For the compound `O=C(O)c1cn(-c2cnc(OCCO)cn2)c2cc(N3CCC[C@@H]3COc3ncccc3Cl)c(Cl)cc2c1=O` [Compound 238, 6-chloro-7-[(2R)-2-[[(3-chloropyridin-2-yl)oxy]methyl]pyrrolidin-1-yl]-1-[5-(2-hydroxy-ethoxy)pyrazin-2-yl]-4-oxoquinoline-3-carboxylic acid], the IC50 is not above 1000 nM.

As for `O=C(O)c1cn(-c2cnn(C3CN(CC(F)(F)F)C3)c2)c2cc(N3CCC[C@@H]3COc3ncccc3Cl)c(Cl)cc2c1=O` [Compound 239, 6-chloro-7-[(2R)-2-[[(3-chloropyridin-2-yl)oxy]methyl]pyrrolidin-1-yl]-4-oxo-1-[1-[1-(2,2,2-trifluoro-ethyl)azetidin-3-yl]pyrazol-4-yl]quinoline-3-carboxylic acid], the IC50 was not above 1000 nM. The same measure for `O=C(O)c1cn(-c2cnccn2)c2cc(N3CCC[C@@H]3COc3ncccc3Cl)c(F)cc2c1=O` [Compound 240, 7-[(2R)-2-[[(3-chloropyridin-2-yl)oxy]methyl]pyrrolidin-1-yl]-6-fluoro-4-oxo-1-(pyrazin-2-yl)quinoline-3-carboxylic acid]: not above 1000 nM; for `CCN1CC(n2cc(-n3cc(C(=O)O)c(=O)c4cc(Cl)c(N5CCC[C@@H]5COc5ncccc5Cl)cc43)cn2)C1` [Compound 241]: not above 1000 nM; for `COCCn1cc(-n2cc(C(=O)O)c(=O)c3cc(C#N)c(N4CCC[C@@H]4COc4ncccc4Cl)cc32)cn1` [Compound 242, 7-[(2R)-2-[[(3-chloropyridin-2-yl)oxy]methyl]pyrrolidin-1-yl]-6-cyano-1-[1-(2-methoxyethyl)pyrazol-4-yl]-4-oxoquinoline-3-carboxylic acid]: not above 1000 nM.

Regarding `O=C(O)c1cn(-c2cnn(C3CNC3)c2)c2cc(N3CCC[C@@H]3COc3ncccc3Cl)c(Cl)cc2c1=O` [Compound 243, 1-[1-(azetidin-3-yl)pyrazol-4-yl]-6-chloro-7-[(2R)-2-[[(3-chloropyridin-2-yl)oxy]methyl]pyrrolidin-1-yl]-4-oxoquinoline-3-carboxylic acid], the IC50 is not above 1000 nM. Next, `O=C(O)c1cn(-c2cnn(C3CN(CCF)C3)c2)c2cc(N3CCC[C@@H]3COc3ncccc3Cl)c(Cl)cc2c1=O` [Compound 244, 6-chloro-7-[(2R)-2-[[(3-chloropyridin-2-yl)oxy]methyl]pyrrolidin-1-yl]-1-[1-[1-(2-fluoroethyl)azetidin-3-yl]pyrazol-4-yl]-4-oxoquinoline-3-carboxylic acid]: not above 1000 nM; `O=C(O)c1cn(-c2cnn(C3CNC3)c2)c2cc(N3CCC[C@@H]3COc3ncccc3F)c(Cl)cc2c1=O` [Compound 246, 1-[1-(azetidin-3-yl)pyrazol-4-yl]-6-chloro-7-[(2R)-2-[[(3-fluoropyridin-2-yl)oxy]methyl]pyrrolidin-1-yl]-4-oxoquinoline-3-carboxylic acid]: not above 1000 nM. In the case of `Cc1cccnc1OC[C@H]1CCCN1c1cc2c(cc1C#N)c(=O)c(C(=O)O)cn2-c1cnn(C)c1` [Compound 248, 6-cyano-1-(1-methylpyrazol-4-yl)-7-[(2R)-2-[[(3-methylpyridin-2-yl)oxy]methyl]pyrrolidin-1-yl]-4-oxoquinoline-3-carboxylic acid], the IC50 is not above 1000 nM. Next, `CN(C)C1CN(c2ccc(-n3cc(C(=O)O)c(=O)c4ccc(N5C(=O)CC[C@@H]5COc5ncccc5Cl)cc43)cn2)C1` [Compound 249, (R)-7-(2-(((3-chloropyridin-2-yl)oxy)methyl)-5-oxopyrrolidin-1-yl)-1-(6-(3-(dimethyl-amino)azetidin-1-yl)pyridin-3-yl)-4-oxo-1,4-dihydro-quinoline-3-carboxylic acid]: 1000 to 10000 nM. Next, `CN(C)C1CN(c2ccc(-n3cc(C(=O)O)c(=O)c4cc(C#N)c(N5CCC[C@@H]5COc5ncccc5Cl)nc43)cn2)C1` [Compound 250, 7-[(2R)-2-[[(3-chloropyridin-2-yl)oxy]methyl]pyrrolidin-1-yl]-6-cyano-1-[6-[3-(dimethyl-amino)azetidin-1-yl]pyridin-3-yl]-4-oxo-1,8-naphthyridine-3-carboxylic acid]: not above 1000 nM; `Cn1cc(Cn2cc(C(=O)O)c(=O)c3cc(Cl)c(N4CCC[C@@H]4COc4ncccc4Cl)cc32)cn1` [Compound 252, 6-chloro-7-[(2R)-2-[[(3-chloropyridin-2-yl)oxy]methyl]pyrrolidin-1-yl]-1-[(1-methyl-pyrazol-4-yl)methyl]-4-oxoquinoline-3-carboxylic acid]: not above 1000 nM; `CN(C)C1CN(c2cc(Cl)c(-n3cc(C(=O)O)c(=O)c4cc(Cl)c(N5CCC[C@@H]5COc5ncccc5Cl)cc43)cn2)C1` [Compound 253, 6-chloro-1-[4-chloro-6-[3-(dimethyl-amino)azetidin-1-yl]pyridin-3-yl]-7-[(2R)-2-[[(3-chloropyridin-2-yl)oxy]methyl]pyrrolidin-1-yl]-4-oxoquinoline-3-carboxylic acid]: not above 1000 nM.
